Test: Critical relative humidity of sugar alcohols determined at 37° C.
Format: physicochemical
Conditions: lowest humidity at which an increase in moisture content is observed after 72 hours
Protocol: As such sugar alcohol, preferably used herein include those having a critical relative humidity as determined at 37° C. of not less than 70% and further preferably used herein are those having a critical relative humidity as determined at 37° C. of not less than 85%. […] For instance, the critical relative humidity can be determined by introducing samples (obtained after drying at 80° C. overnight) of about 1 g each into weighing bottles, placing them in thermo-hygrostats which have been set at the following relative humidity (RH) values: 37° C./40% RH, 37° C./45% RH, 37° C./55% RH, 37° C./65% RH, 37° C./70% RH, 37° C./75% RH, 37° C./80% RH, 37° C./85% RH, 37° C./90% RH, 37° C./95% RH and 37° C./98% RH, respectively (all of the chambers are of the same type: ETAC FX201P), allowing them to stand under such conditions over 72 hours, calculating the increase in the moisture content of each sample at this stage, and determining the lowest humidity at which an increase in the moisture content is observed, the resulting lowest humidity being defined to be the critical relative humidity of the sugar alcohol thus tested. […] The examples of such sugar alcohols having a critical relative humidity, as determined at 37° C., of not less than 70% are erythritol, xylitol, mannitol, maltitol, lactitol, and the like. […]

critical relative humidity	Compound
not less than 98%	OC[C@@H](O)[C@@H](O)[C@H](O)[C@H](O)CO [mannitol]
65%	OC[C@@H](O)[C@@H](O)[C@H](O)[C@@H](O)CO [sorbitol]
